# The supplement of paper PMC4932681
# Where a name gives a salt, the structure may show the parent alone.
# Tests used:
# Assay in all cases: viability inhibition at highest dose (% inhibition); higher = more growth inhibition
# [1] = test system: ZR-75-1 Tam2; details: 4-OH-tamoxifen in medium 1 µM; 72 h
# Description: (§1)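 Percent inhibition of viability (CellTiter-Glo, 72 h) at the highest tested concentration (D5), normalised to DMSO (0%) and 100 µM benzethonium chloride (100%). Resistant lines and the 'in 1µM tamoxifen' arms were tested in 1 µM 4-OH-tamoxifen.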
# [2] = test system: MCF-7; details: 72 h
# Description: as §1
# [3] = test system: BT-474 Tam1; details: 4-OH-tamoxifen in medium 1 µM; 72 h
# Description: as §1
# [4] = test system: T-47D; details: 72 h
# Description: as §1
# [5] = test system: ZR-75-1 Tam1; details: 4-OH-tamoxifen in medium 1 µM; 72 h
# Description: as §1
# [6] = test system: BT-474; details: 72 h
# Description: as §1
# [7] = test system: BT-474 Tam2; details: 4-OH-tamoxifen in medium 1 µM; 72 h
# Description: as §1
# [8] = test system: ZR-75-1; details: 72 h
# Description: as §1
# [9] = test system: MCF-7 Tam1; details: 4-OH-tamoxifen in medium 1 µM; 72 h
# Description: as §1
# [10] = test system: T-47D Tam1; details: 4-OH-tamoxifen in medium 1 µM; 72 h
# Description: as §1
# [11] = test system: T-47D Tam2; details: 4-OH-tamoxifen in medium 1 µM; 72 h
# Description: as §1
Structure (SMILES),viability inhibition at highest dose [1],viability inhibition at highest dose ([2]; 4-OH-tamoxifen in medium 0 µM),viability inhibition at highest dose ([2]; 4-OH-tamoxifen in medium 1 µM),viability inhibition at highest dose [3],viability inhibition at highest dose ([4]; 4-OH-tamoxifen in medium 0 µM),viability inhibition at highest dose ([4]; 4-OH-tamoxifen in medium 1 µM),viability inhibition at highest dose [5],viability inhibition at highest dose ([6]; 4-OH-tamoxifen in medium 0 µM),viability inhibition at highest dose ([6]; 4-OH-tamoxifen in medium 1 µM),viability inhibition at highest dose [7],viability inhibition at highest dose ([8]; 4-OH-tamoxifen in medium 0 µM),viability inhibition at highest dose ([8]; 4-OH-tamoxifen in medium 1 µM),viability inhibition at highest dose [9],viability inhibition at highest dose [10],viability inhibition at highest dose [11]
COC1=C2C[C@@H](C)C[C@H](OC)[C@H](O)[C@@H](C)/C=C(\C)[C@H](OC(N)=O)[C@@H](OC)/C=C\C=C(/C)C(=O)NC(=CC1=O)C2=O [Geldanamycin] (drug 10000 nM),66.7,85.8,78.5,83.6,73.3,74.9,69,67.6,69.7,82.1,62,80.5,58.9,82.4,67.1
CO[C@H]1C[C@@H]2CC[C@@H](C)[C@@](O)(O2)C(=O)C(=O)N2CCCC[C@H]2C(=O)O[C@H]([C@H](C)C[C@@H]2CC[C@@H](OP(C)(C)=O)[C@H](OC)C2)CC(=O)[C@H](C)/C=C(\C)[C@@H](O)[C@@H](OC)C(=O)[C@H](C)C[C@H](C)/C=C/C=C/C=C/1C [Ridaforolimus] (drug 100 nM),39.5,49.7,37.1,23.2,33.4,21.6,35.9,19.8,6.43,22,37.8,30.1,17.7,33.3,28.2
O=C(/C=C/c1cccc(S(=O)(=O)Nc2ccccc2)c1)NO [Belinostat  (PXD101)] (drug 10000 nM),51.5,89.5,86.8,89,95.6,94.8,39.5,91.3,97.1,77.2,38.9,38.7,22.8,92,70.4
CC[C@@H]1C(=O)OC[C@@H]1Cc1cncn1C [Pilocarpine] (drug 40000 nM),-0.127,-3.51,9.03,4.36,-7.15,-0.389,8.48,-0.744,-6.73,6.51,-3.18,-6.19,-6.84,-0.157,9.72
CO[C@H]1C[C@@H]2CC[C@@H](C)[C@@](O)(O2)C(=O)C(=O)N2CCCC[C@H]2C(=O)O[C@H]([C@H](C)C[C@@H]2CC[C@@H](OC(=O)C(C)(CO)CO)[C@H](OC)C2)CC(=O)[C@H](C)/C=C(\C)[C@@H](O)[C@@H](OC)C(=O)[C@H](C)C[C@H](C)/C=C/C=C/C=C/1C [Temsirolimus] (drug 100 nM),36.2,40.1,35.9,20.6,26.7,13.2,30.5,8.72,3.21,14.5,33.7,28.7,10.6,31.8,24
C=CCn1c(=O)c2cnc(Nc3ccc(N4CCN(C)CC4)cc3)nc2n1-c1cccc(C(C)(C)O)n1 [MK-1775] (drug 10000 nM),1.58,51.7,35.9,40.9,22.4,16.9,1.62,25,44,30.6,21.9,14.6,6.3,39.6,38.8
CCN(CC)CCOc1ccc(C(=C(Cl)c2ccccc2)c2ccccc2)cc1 [Clomifene citrate] (drug 10000 nM),42.3,12.8,85.5,86.8,21.6,26.1,24.1,85.5,84,97.3,23.4,36.7,57.7,40.8,48.9
CC(C)c1c(C(=O)Nc2ccccc2)c(-c2ccccc2)c(-c2ccc(F)cc2)n1CC[C@@H](O)C[C@@H](O)CC(=O)O [Atorvastatin] (drug 10000 nM),39.9,23.9,19.8,12.4,35.6,36.5,44.5,13.8,7.75,28.2,48.4,36.5,13.7,29.2,18.7
"COc1cc2/c(=N/c3ccc(Br)cc3F)nc[nH]c2cc1OCC1CCN(C)CC1 [Vandetanib  (ZD6474, Zactima)] (drug 1000 nM)",0.544,15.2,11.9,22,-1.36,-3.82,4.94,2.03,5.94,15,-14.7,-3,-0.506,11.5,20.8
